Reference: patent US11008323B2, “Substituted tricyclic 1,4-benzodiazepinone derivatives as allosteric modulators of group II metabotropic glutamate receptors” (Domain Therapeutics, priority 2015, dated 2021)

Key:
[1] = biological target: T1, human mGluR3 (hmGluR3) (Homo sapiens, UniProt Q14832); assay: Human mGluR3 positive allosteric modulator evaluation using Ca++ functional assay; assay type: cell-based; conditions: hmGluR3 transiently over-expressed in HEK-293 cells; stimulated by EC50 glutamate concentration; intracellular Ca2+ (Fluo4AM, FLIPR Tetra)
T1 construct: expressed in transfected cells; host or cells: HEK-293 cells, transient co-transfection by electroporation
T1 sequence (Q14832 23-879): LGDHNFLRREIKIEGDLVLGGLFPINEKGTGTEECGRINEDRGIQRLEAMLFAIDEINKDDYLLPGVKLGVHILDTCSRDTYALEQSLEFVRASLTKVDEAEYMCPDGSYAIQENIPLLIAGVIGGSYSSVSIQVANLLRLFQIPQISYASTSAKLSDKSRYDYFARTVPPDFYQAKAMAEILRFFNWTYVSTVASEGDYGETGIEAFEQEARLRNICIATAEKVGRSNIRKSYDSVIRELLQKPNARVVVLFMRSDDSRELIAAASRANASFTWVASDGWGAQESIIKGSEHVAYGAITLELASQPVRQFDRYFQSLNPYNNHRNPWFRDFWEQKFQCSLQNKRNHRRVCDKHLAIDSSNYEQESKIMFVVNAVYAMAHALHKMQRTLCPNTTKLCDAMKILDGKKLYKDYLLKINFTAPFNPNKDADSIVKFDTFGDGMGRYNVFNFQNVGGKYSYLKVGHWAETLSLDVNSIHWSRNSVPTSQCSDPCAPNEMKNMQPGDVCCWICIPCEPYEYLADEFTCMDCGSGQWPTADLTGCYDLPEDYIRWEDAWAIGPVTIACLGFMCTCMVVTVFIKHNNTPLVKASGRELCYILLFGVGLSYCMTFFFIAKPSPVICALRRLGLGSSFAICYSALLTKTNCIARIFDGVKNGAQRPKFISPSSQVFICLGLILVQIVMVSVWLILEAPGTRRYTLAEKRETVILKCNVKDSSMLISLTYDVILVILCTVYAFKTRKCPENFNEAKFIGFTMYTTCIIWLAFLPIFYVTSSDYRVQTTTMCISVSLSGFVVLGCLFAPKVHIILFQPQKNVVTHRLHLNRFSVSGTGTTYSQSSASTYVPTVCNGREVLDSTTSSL
Outline: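 Calcium flux (Fluo4, ex 485/em 525 nm) recorded first 10 min with compound alone, then 3 min after an EC50 glutamate challenge, giving agonist and PAM EC50 from 20-concentration sigmoidal fits. Receptor was transiently co-transfected in HEK-293 with chimeric G protein and glutamate transporters.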

SMILES	EC50 [1]	melting point
CN1C(=O)c2ccc(-c3ccnn3C)n2-c2cc(-c3ccc(F)cn3)ccc2C12CC2 [Example 86, 5-Methyl-1-(2-methyl-2H-pyrazol-3-yl)9-(5-fluoropyridin-2-yl)-spiro[benzo[f]pyrrolo[1,2-a][1,4]diazepine-6,1′-cyclopropan]-4(5H)-one]	> 1 µM	143 to 166 °C
CN1C(=O)c2cccn2-c2cc(-c3ccc(F)nc3)ccc2C12CC2 [Example 31, 5-Methyl-9-(6-fluoropyridin-3-yl)-spiro[benzo[f]pyrrolo[1,2-a][1,4]diazepine-6,1′-cyclopropan]-4(5H)-one]	< 0.1 µM	171 to 176 °C
CN1C(=O)c2cc(-c3nnco3)cn2-c2cc(-c3cccnn3)ccc2C12CC2 [Example 193]	0.1 to 1 µM	> 250 °C
CN1C(=O)c2cccn2-c2cc(-c3cccc(C#N)c3)ccc2C12CC2 [Example 44, 5-Methyl-9-(3-cyanophenyl)-spiro[benzo[f]pyrrolo[1,2-a][1,4]diazepine-6,1′-cyclopropan]-4(5H)-one]	< 0.1 µM	189 to 194 °C
CN1C(=O)c2cc(-c3ccccc3)nn2-c2cc(-c3cccc(C(=O)O)c3)ccc2C12CC2 [Example 133, 3-(5-methyl-4-oxo-2-phenyl-4,5-dihydrospiro[benzo[f]pyrazolo[1,5-a][1,4]diazepine-6,1′-cyclopropan]-9-yl)benzoic acid]	< 0.1 µM	211 to 217 °C
CN1C(=O)c2cc(-c3nnco3)cn2-c2cc(-c3ccc(F)nc3)ccc2C12CC2 [Example 187]	< 0.1 µM	160 to 175 °C
COC(=O)c1ncccc1-c1ccc2c(c1)-n1cccc1C(=O)N(C)C21CC1 [Example 71, 5-Methyl-9-(2-methoxycarbonylpyridin-3-yl)-spiro[benzo[f]pyrrolo[1,2-a][1,4]diazepine-6,1′-cyclopropan]-4(5H)-one]	> 1 µM	198 to 203 °C
CN1C(=O)c2cccn2-c2cc(-c3cnccc3C(F)(F)F)ccc2C12CC2 [Example 37, 5-Methyl-9-(4-trifluoromethylpyridin-3-yl)-spiro[benzo[f]pyrrolo[1,2-a][1,4]diazepine-6,1′-cyclopropan]-4(5H)-one]	> 1 µM	67 to 78 °C
CN1C(=O)c2cccn2-c2cc(-c3ncccc3F)ccc2C12CC2 [Example 66, 5-Methyl-9-(3-fluoropyridin-2-yl)-spiro[benzo[f]pyrrolo[1,2-a][1,4]diazepine-6,1′-cyclopropan]-4(5H)-one]	> 1 µM	102 to 118 °C
CN1C(=O)c2cc(-c3ccccc3)nn2-c2cc(-c3cccc(S(=O)(=O)N(C)C)c3)ccc2C12CC2 [Example 142, N,N-dimethyl-3-(5-methyl-4-oxo-2-phenyl-4,5-dihydrospiro[benzo[f]pyrazolo[1,5-a][1,4]diazepine-6,1′-cyclopropan]-9-yl)benzenesulfonamide]	0.1 to 1 µM	182 to 189 °C
CN1C(=O)c2cc(-c3ccccc3)nn2-c2cc(-c3cc[nH]n3)ccc2C12CC2 [Example 136, 9-(1H-pyrazol-3-yl)-5-methyl-2-phenyl-spiro[benzo[f]pyrazolo[1,5-a][1,4]diazepine-6,1′-cyclopropan]-4(5H)-one]	0.1 to 1 µM	218 to 224 °C
CN1C(=O)c2cc(-c3ccccc3)cn2-c2ccc(N3CCOCC3)cc2C12CC2 [Example 120, 8-Morpholin-4-yl-5-methyl-2-phenyl-spiro[benzo[f]pyrrolo[1,2-a][1,4]diazepine-6,1′-cyclopropan]-4(5H)-one]	> 1 µM	117 to 123 °C
CN1C(=O)c2cccn2-c2cc(-c3ccnn3C)ccc2C12CC2 [Example 30, 5-Methyl-9-(1-methyl-pyrazol-5-yl)-spiro[benzo[f]pyrrolo[1,2-a][1,4]diazepine-6,1′-cyclopropan]-4(5H)-one]	0.1 to 1 µM	214 to 220 °C
COCN1C(=O)c2cccn2-c2cc(-c3cccnc3C)ccc2C12CC2 [Example 21, 5-Methoxymethyl-9-(2-methyl-pyridin-3-yl)-spiro[benzo[f]pyrrolo[1,2-a][1,4]diazepine-6,1′-cyclopropan]-4(5H)-one]	> 1 µM	138 to 142 °C
COc1ccc(-c2ccc3c(c2)-n2cccc2C(=O)N(C)C32CC2)cc1OC [Example 39, 5-Methyl-9-(3,4-dimethoxy-phenyl)-spiro[benzo[f]pyrrolo[1,2-a][1,4]diazepine-6,1′-cyclopropan]-4(5H)-one]	0.1 to 1 µM	150 to 154 °C
Cc1cccc2c1-n1cccc1C(=O)N(C)C21CC1 [Example 90, 5,10-Dimethyl-spiro[benzo[f]pyrrolo[1,2-a][1,4]diazepine-6,1′-cyclopropan]-4(5H)-one]	> 1 µM	200 to 207 °C

SMILES	EC50 [1]	melting point
CN1C(=O)c2cccn2-c2cc(-c3cccc(F)n3)ccc2C12CC2 [Example 67, 5-Methyl-9-(6-fluoropyridin-2-yl)-spiro[benzo[f]pyrrolo[1,2-a][1,4]diazepine-6,1′-cyclopropan]-4(5H)-one]	0.1 to 1 µM	106 to 117 °C
Cc1cccc2c1C1(CC1)N(C)C(=O)c1cccn1-2 [Example 89, 5,7-Dimethyl-spiro[benzo[f]pyrrolo[1,2-a][1,4]diazepine-6,1′-cyclopropan]-4(5H)-one]	> 1 µM	126 to 134 °C
CC(=O)N1CC=C(c2ccc3c(c2)-n2cccc2C(=O)N(C)C32CC2)CC1 [Example 48, 5-Methyl-9-(1-acetyl-1,2,3,6-tetrahydro-pyridin-4-yl)-spiro[benzo[f]pyrrolo[1,2-a][1,4]diazepine-6,1′-cyclopropan]-4(5H)-one]	0.1 to 1 µM	101 to 110 °C
Cc1ncccc1-c1ccc2c(c1)-n1cccc1C(=O)N(C)C21CC1 [Example 20, 5-Methyl-9-(2-methyl-pyridin-3-yl)-spiro[benzo[f]pyrrolo[1,2-a][1,4]diazepine-6,1′-cyclopropan]-4(5H)-one]	0.1 to 1 µM	200 to 210 °C
CN1C(=O)c2cccn2-c2cc(-c3ccc(F)nc3)cc(F)c2C12CC2 [Example 74, 7-Fluoro-5-methyl-9-(6-fluoro-pyridin-3-yl)-spiro[benzo[f]pyrrolo[1,2-a][1,4]diazepine-6,1′-cyclopropan]-4(5H)-one]	< 0.1 µM	220 to 225 °C
CN(C)c1ccc(-c2ccc3c(c2)-n2cc(-c4nnco4)cc2C(=O)N(C)C32CC2)cn1 [Example 190]	< 0.1 µM	> 250 °C
CN1C(=O)c2cccn2-c2cc(-c3ccc(F)nc3)c(F)cc2C12CC2 [Example 78, 8-Fluoro-5-methyl-9-(6-fluoro-pyridin-3-yl)-spiro[benzo[f]pyrrolo[1,2-a][1,4]diazepine-6,1′-cyclopropan]-4(5H)-one]	0.1 to 1 µM	185 to 192 °C
CN1C(=O)c2cccn2-c2cc(-c3cnn(C)c3)ccc2C12CC2 [Example 29, 5-Methyl-9-(1-methyl-pyrazol-4-yl)-spiro[benzo[f]pyrrolo[1,2-a][1,4]diazepine-6,1′-cyclopropan]-4(5H)-one]	0.1 to 1 µM	75 to 83 °C
CN1C(=O)c2cc(-c3ccccc3)cn2-c2cc(-c3ccc(C#N)nc3)ccc2C12CC2 [Example 117, 5-Methyl-2-phenyl-9-(6-cyano-pyridin-3-yl)-spiro[benzo[f]pyrrolo[1,2-a][1,4]diazepine-6,1′-cyclopropan]-4(5H)-one]	0.1 to 1 µM	200 to 204 °C
[2H]C([2H])([2H])N1C(=O)c2cccn2-c2cc(-c3ccc(F)cn3)ccc2C12CC2 [Example 64, 5-(Methyl-d3)-9-(5-fluoropyridin-2-yl)-spiro[benzo[f]pyrrolo[1,2-a][1,4]diazepine-6,1′-cyclopropan]-4(5H)-one]	< 0.1 µM	138 to 142 °C
CN1C(=O)c2cccn2-c2cc(-c3ccnc(F)c3)ccc2C12CC2 [Example 34, 5-Methyl-9-(2-fluoropyridin-4-yl)-spiro[benzo[f]pyrrolo[1,2-a][1,4]diazepine-6,1′-cyclopropan]-4(5H)-one]	0.1 to 1 µM	197 to 201 °C
Cc1ccc2c(c1)C1(CC1)N(C)C(=O)c1cccn1-2 [Example 87, 5,8-Dimethyl-spiro[benzo[f]pyrrolo[1,2-a][1,4]diazepine-6,1′-cyclopropan]-4(5H)-one]	> 1 µM	143 to 150 °C
CN1C(=O)c2cccn2-c2cc(-c3ccnc(C(F)(F)F)c3)ccc2C12CC2 [Example 35, 5-Methyl-9-(2-trifluoromethylpyridin-4-yl)-spiro[benzo[f]pyrrolo[1,2-a][1,4]diazepine-6,1′-cyclopropan]-4(5H)-one]	0.1 to 1 µM	169 to 174 °C
CN1C(=O)c2cccn2-c2ccc(N3CCOCC3)cc2C12CC2 [Example 88, 8-Morpholin-4-yl-5-methyl-spiro[benzo[f]pyrrolo[1,2-a][1,4]diazepine-6,1′-cyclopropan]-4(5H)-one]	> 1 µM	140 to 146 °C
CN1C(=O)c2cc(-c3ccccc3)nn2-c2cc(-c3ccc(N)cc3)ccc2C12CC2 [Example 124, 9-(4-Amino-phenyl)-5-methyl-2-phenyl-spiro[benzo[f]pyrazolo[1,5-a][1,4]diazepine-6,1′-cyclopropan]-4(5H)-one]	> 1 µM	195 to 209 °C
CN1C(=O)c2cccn2-c2ccccc2C1(C)C [Example 221, 5,6,6-Trimethyl-5,6-dihydro-benzo[f]pyrrolo[1,2-a][1,4]diazepin-4-one]	> 1 µM	127 to 130 °C
